Patent publication US20150342954A1, “2-BENZYL, 3-(PYRIMIDIN-2-YL) SUBSTITUTED PYRAZOLES USEFUL AS SGC STIMULATORS” (IRONWOOD PHARMACEUTICALS, INC., priority 2011, published 2015)
Where two headings read alike, the source gives them in different places.

How the values were obtained:
[1] = target: T1, Human soluble guanylate cyclase enzyme (hsGC) (Homo sapiens, UniProt Q02108+Q02153); experiment: Purified human sGC enzyme activity assay (without SNP); type: biochemical; conditions: compound at 30 μM, absence of SNP, fold over DMSO control
T1 construct: purchased Enzo Inc. ALX-201-177
T1 sequence (Q02153 1-619): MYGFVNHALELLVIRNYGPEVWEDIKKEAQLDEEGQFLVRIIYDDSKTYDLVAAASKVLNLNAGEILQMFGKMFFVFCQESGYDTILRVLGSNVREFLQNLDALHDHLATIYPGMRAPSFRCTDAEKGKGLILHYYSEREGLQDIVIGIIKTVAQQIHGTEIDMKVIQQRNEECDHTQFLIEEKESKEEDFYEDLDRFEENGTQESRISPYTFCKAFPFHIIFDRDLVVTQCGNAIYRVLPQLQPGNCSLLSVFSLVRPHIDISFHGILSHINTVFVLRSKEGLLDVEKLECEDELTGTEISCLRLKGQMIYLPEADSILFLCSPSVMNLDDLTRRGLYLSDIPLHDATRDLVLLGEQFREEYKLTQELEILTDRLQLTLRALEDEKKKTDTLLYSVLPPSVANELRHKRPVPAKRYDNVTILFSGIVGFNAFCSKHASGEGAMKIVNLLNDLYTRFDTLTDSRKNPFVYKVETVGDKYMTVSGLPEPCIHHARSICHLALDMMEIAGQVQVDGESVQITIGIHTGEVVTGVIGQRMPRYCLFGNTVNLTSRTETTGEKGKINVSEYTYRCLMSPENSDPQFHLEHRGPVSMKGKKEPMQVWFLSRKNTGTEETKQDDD
T1 sequence (Q02108 1-690): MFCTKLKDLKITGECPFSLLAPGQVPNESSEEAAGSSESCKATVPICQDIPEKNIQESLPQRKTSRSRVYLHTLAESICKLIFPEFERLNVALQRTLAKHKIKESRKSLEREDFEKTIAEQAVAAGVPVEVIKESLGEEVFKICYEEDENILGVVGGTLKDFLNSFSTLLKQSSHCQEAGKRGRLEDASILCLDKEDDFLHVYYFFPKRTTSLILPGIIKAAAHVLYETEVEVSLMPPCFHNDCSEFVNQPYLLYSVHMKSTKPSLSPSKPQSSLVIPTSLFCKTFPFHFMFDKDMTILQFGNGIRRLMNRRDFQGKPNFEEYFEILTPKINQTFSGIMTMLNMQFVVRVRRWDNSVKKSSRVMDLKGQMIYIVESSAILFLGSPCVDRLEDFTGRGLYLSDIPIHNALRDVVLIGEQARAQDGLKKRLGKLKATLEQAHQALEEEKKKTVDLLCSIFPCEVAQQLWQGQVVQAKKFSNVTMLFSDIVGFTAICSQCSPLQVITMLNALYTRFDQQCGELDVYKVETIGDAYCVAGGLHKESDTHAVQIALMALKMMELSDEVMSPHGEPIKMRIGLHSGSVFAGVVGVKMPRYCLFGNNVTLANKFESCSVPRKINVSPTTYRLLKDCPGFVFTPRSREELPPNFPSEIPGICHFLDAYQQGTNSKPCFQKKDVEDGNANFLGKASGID
Procedure: Biological Activity Measurements by the Purified Human sGC Enzyme Activity Assay
(§1) Human soluble guanylate cyclase enzyme (hsGC) obtained from Enzo Inc. (P/N: ALX-201-177) was used to evaluate the activity of test compounds. The assay reactions contained 0.1 M Tris (pH 8.0), 0.5 mg/mL BSA (pH 8.0), 2 mM DTT, 2 mM MgCl2, 300 μM GTP, 1 mM 3-isobutyl-1-methylxanthine (IBMX) and 5 ng human soluble guanylate cyclase enzyme. Test compounds in DMSO were then added (2 μL, 10 or 30 μM final concentration) and incubated (200 μL, 96-well plate format) at 37° C. for 30 minutes. The controls were carried out using 2 μL DMSO. After the 30 minute incubation, the reaction was stopped with the addition of 200 μl of cold methanol. The plate was then centrifuged at 3,200 rpm for 10 minutes at room temperature. Supernatants (200 μL) were collected and transferred to a new 96 well plate for analysis.
(§2) An 8 point cGMP (Sigma-Aldrich P/N: G6129) standard curve was prepared in assay buffer ranging from 0.156-20 μM. Samples for the cGMP standard curve were then diluted with an equal volume of methanol resulting in final cGMP concentrations of 0.078-10 μM.
(§3) The cGMP standard curve was generated using GraphPad Prism Software.
(§4) Calculations: Specific Activity was determined by the amount of cGMP formed (nmoles) per mg of sGC per min. Enzyme “fold-change” was calculated by dividing Specific Activity for test compounds by Specific Activity of DMSO controls.

[2] = target: T1, Human soluble guanylate cyclase enzyme (hsGC); experiment: Purified human sGC enzyme synergy assay in the presence of 1 μM sodium nitroprusside (SNP); type: biochemical; conditions: compound at 30 μM, presence of 1 μM SNP
Procedure: as §1, §2, §3, §4
Biological Measurement by the Purified Human sGC Enzyme Synergy Performed in the Presence of Sodium Nitroprusside (SNP), a Nitric Oxide Donor
Enzyme assays were performed as described above, but was done in the absence or presence of 1 μM sodium nitroprusside (SNP).

[3] = target: T2, soluble guanylate cyclase (sGC) (Homo sapiens, UniProt Q02108+Q02153); experiment: sGC-HEK-cGMP assay (run with SNP incubation); type: cell-based; conditions: for Emax: 10 μM SNP, 100% = 30 μM BAY 41-2272 with 10 μM SNP, read-out: HEK assay Emax-unconstrained (Percent); for HEK MEC-10: concentration that would elicit 10% of the Emax in the presence of 10 μM SNP; for EC50: in the presence of 10 μM SNP
T2 construct: endogenously expressing soluble guanylate cyclase (sGC); endogenous in cells; host or cells: HEK293
T2 sequence (Q02153 1-619): T1 sequence (Q02153 1-619)
T2 sequence (Q02108 1-690): T1 sequence (Q02108 1-690)
Procedure, shortened: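 HEK293 cells with endogenous sGC were pre-treated 15 min at 37 °C with 0.5 mM IBMX, then exposed to test compound plus sodium nitroprusside for 10 min at 37 °C. Cells were lysed in 0.1 M HCl (4 °C, 30 min), and cGMP was quantified by LC/MS against a standard curve. EC50 values came from concentration-response curves.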

[4] = Table 3A, top of concentration-response curve not fitted to 100%
[5] = Table 3D, read-out: HEK assay EC50
[6] = top of concentration-response curve not fitted to 100%, Table 3D, read-out: HEK assay EC50-unconstrained
[7] = Table 3B, top of concentration-response curve not fitted to 100%
[8] = Table 3E, read-out: HEK assay EC50
[9] = top of concentration-response curve not fitted to 100%, Table 3E, read-out: HEK assay EC50-unconstrained

| Compound | Enzyme Activity (increase at 30 μM without SNP) ([1]; Table 5A) | Enzyme Activity (increase at 30 μM with SNP) ([2]; Table 5A) | Emax [3, 4] [%] | HEK MEC-10 ([3]; Table 3D) | EC50 [3, 5] [µM] | EC50 [3, 6] [µM] | Enzyme Activity (increase at 30 μM without SNP) ([1]; Table 5B) | Enzyme Activity (increase at 30 μM with SNP) ([2]; Table 5B) | Emax [3, 7] [%] | HEK MEC-10 ([3]; Table 3E) | EC50 [3, 8] [µM] | EC50 [3, 9] [µM] |
| --- | --- | --- | --- | --- | --- | --- | --- | --- | --- | --- | --- | --- |
| Oc1nc(-c2cc(-c3nccs3)n(Cc3ccccc3F)n2)ncc1F [Compound 44] | B (2 to <5 fold increase) | D (10 or <20 fold increase) | 40 to 60 | C (0.1 to <1 μM) | < 20 | 0.01 to 0.5 |  |  |  |  |  |  |
| Oc1nc(-c2cc(-c3ccon3)n(Cc3ccccc3F)n2)ncc1-c1ccsc1 [Compound 45] | A (no increase to <2 fold increase) | B (2 to <5 fold increase) | 10 to 20 | E (10 to 50 μM) | 100 to 300 | 5 to 10 |  |  |  |  |  |  |
| Fc1ccccc1Cn1nc(-c2ncc(Br)c(Cl)n2)cc1-c1ccon1 [Compound 52] | B (2 to <5 fold increase) | D (10 or <20 fold increase) | 40 to 60 | D (1 to <10 μM) | 60 to 100 | 10 to 50 |  |  |  |  |  |  |
| CC(C)(CC(F)(F)F)C(=O)Nc1cnc(-c2cc(-c3ccon3)n(Cc3ccccc3F)n2)nc1N [Compound 53] | C (5 to <10 fold increase) | E (20 to 30 fold increase) | 60 to 80 | C (0.1 to <1 μM) | < 20 | 1 to 5 |  |  |  |  |  |  |
| O=c1[nH]c(-c2cc(-c3ccon3)n(Cc3ccccc3F)n2)nc(Cl)c1Cl [Compound 54] | A (no increase to <2 fold increase) | C (5 to <10 fold increase) | 40 to 60 | D (1 to <10 μM) | 40 to 60 | 5 to 10 |  |  |  |  |  |  |
| CC1(C(=O)Nc2cnc(-c3cc(-c4ncco4)n(Cc4ccccc4F)n3)nc2N)CC1(F)F (stereo not shown) [Compound 55] | C (5 to <10 fold increase) | F (>30 fold increase) | 100 to 120 | C (0.1 to <1 μM) | < 20 | 1 to 5 |  |  |  |  |  |  |
| NNc1nc(-c2cc(-c3ccon3)n(Cc3ccccc3F)n2)ncc1F [Compound 56] | C (5 to <10 fold increase) | D (10 or <20 fold increase) | 60 to 80 | B (0.01 to <0.1 μM) | < 20 | 0.5 to 1 |  |  |  |  |  |  |
| CCCCCCCCCCC(=O)Nc1cnc(-c2cc(-c3ccon3)n(Cc3ccccc3F)n2)nc1N [Compound 58] | A (no increase to <2 fold increase) | B (2 to <5 fold increase) |  | E (10 to 50 μM) | 600 to 900 |  |  |  |  |  |  |  |
| O=c1[nH]c(-c2cc(-c3ccon3)n(Cc3ccccc3F)n2)ncc1S(=O)(=O)N1CCOCC1 [Compound 60] | B (2 to <5 fold increase) | D (10 or <20 fold increase) | 80 to 100 | C (0.1 to <1 μM) | < 20 | 0.5 to 1 |  |  |  |  |  |  |
| O=c1[nH]c(-c2cc(-c3ccon3)n(Cc3cccnc3F)n2)ncc1F [Compound 67] | A (no increase to <2 fold increase) | B (2 to <5 fold increase) | 20 to 40 | B (0.01 to <0.1 μM) | 40 to 60 | 0.01 to 0.5 |  |  |  |  |  |  |
| O=c1[nH]c(-c2cc(-c3ccccn3)n(Cc3ccccc3F)n2)ncc1F [Compound 68] |  |  |  |  |  |  | A (no increase to <2 fold increase) | C (5 to <10 fold increase) | 40 to 60 | D (1 to <10 μM) | 40 to 60 | 5 to 10 |
| Nc1nc(-c2cc(-c3ccon3)n(Cc3ccccc3F)n2)ncc1NC(=O)C1(N)CC1 [Compound 69] |  |  |  |  |  |  | B (2 to <5 fold increase) | D (10 or <20 fold increase) | 80 to 100 | A (0.001 to <0.01 μM) | 60 to 100 | 0.5 to 1 |
| O=c1[nH]c(-c2cc(-c3ccon3)n(Cc3ccc(F)cc3F)n2)ncc1F [Compound 70] |  |  |  |  |  |  | C (5 to <10 fold increase) | D (10 or <20 fold increase) | 40 to 60 | C (0.1 to <1 μM) | 40 to 60 | 0.01 to 0.5 |
